{"source": "paper PMC5719402", "about": "“Protein-Structure Assisted Optimization of 4,5-Dihydroxypyrimidine-6-Carboxamide Inhibitors of Influenza Virus Endonuclease” (Scientific Reports, 2017)", "target": "wild type PAN ΔLoop protein (Influenza A virus, UniProt C3W5S0, DEL51-57/DEL61-72/E59G)", "type": "biochemical, influenza A/California/04/2009 H1N1", "conditions": "read-out: FRET IC50", "data": [{"smiles": "O=C(O)C(=O)CC(=O)c1ccccc1", "note": "[DPBA, reference compound]", "values": [{"measurement": "IC50", "value": "0.098 ± 0.003", "unit": "µM"}]}]}
